Several values for one entry are separate records, joined by “and”; a condition that tells them apart may be missing. Equal values may be shown once. Read-outs that look alike come from different tables or passages of the source.
Tests used:
Test in all cases: cell-based
hNav1.4 [1] = target: T1, hNav1.4 (Homo sapiens, UniProt P35499); conditions: for IC50: PatchXpress, read-out: PX hNav1.4 Tonic IC50
hNav1.5 = hNav1.5 (Homo sapiens, UniProt Q14524); conditions: for IC50: PatchXpress, read-out: PX hNav1.5 Tonic IC50
Chain of hNav1.5 (Q14524 whole entry): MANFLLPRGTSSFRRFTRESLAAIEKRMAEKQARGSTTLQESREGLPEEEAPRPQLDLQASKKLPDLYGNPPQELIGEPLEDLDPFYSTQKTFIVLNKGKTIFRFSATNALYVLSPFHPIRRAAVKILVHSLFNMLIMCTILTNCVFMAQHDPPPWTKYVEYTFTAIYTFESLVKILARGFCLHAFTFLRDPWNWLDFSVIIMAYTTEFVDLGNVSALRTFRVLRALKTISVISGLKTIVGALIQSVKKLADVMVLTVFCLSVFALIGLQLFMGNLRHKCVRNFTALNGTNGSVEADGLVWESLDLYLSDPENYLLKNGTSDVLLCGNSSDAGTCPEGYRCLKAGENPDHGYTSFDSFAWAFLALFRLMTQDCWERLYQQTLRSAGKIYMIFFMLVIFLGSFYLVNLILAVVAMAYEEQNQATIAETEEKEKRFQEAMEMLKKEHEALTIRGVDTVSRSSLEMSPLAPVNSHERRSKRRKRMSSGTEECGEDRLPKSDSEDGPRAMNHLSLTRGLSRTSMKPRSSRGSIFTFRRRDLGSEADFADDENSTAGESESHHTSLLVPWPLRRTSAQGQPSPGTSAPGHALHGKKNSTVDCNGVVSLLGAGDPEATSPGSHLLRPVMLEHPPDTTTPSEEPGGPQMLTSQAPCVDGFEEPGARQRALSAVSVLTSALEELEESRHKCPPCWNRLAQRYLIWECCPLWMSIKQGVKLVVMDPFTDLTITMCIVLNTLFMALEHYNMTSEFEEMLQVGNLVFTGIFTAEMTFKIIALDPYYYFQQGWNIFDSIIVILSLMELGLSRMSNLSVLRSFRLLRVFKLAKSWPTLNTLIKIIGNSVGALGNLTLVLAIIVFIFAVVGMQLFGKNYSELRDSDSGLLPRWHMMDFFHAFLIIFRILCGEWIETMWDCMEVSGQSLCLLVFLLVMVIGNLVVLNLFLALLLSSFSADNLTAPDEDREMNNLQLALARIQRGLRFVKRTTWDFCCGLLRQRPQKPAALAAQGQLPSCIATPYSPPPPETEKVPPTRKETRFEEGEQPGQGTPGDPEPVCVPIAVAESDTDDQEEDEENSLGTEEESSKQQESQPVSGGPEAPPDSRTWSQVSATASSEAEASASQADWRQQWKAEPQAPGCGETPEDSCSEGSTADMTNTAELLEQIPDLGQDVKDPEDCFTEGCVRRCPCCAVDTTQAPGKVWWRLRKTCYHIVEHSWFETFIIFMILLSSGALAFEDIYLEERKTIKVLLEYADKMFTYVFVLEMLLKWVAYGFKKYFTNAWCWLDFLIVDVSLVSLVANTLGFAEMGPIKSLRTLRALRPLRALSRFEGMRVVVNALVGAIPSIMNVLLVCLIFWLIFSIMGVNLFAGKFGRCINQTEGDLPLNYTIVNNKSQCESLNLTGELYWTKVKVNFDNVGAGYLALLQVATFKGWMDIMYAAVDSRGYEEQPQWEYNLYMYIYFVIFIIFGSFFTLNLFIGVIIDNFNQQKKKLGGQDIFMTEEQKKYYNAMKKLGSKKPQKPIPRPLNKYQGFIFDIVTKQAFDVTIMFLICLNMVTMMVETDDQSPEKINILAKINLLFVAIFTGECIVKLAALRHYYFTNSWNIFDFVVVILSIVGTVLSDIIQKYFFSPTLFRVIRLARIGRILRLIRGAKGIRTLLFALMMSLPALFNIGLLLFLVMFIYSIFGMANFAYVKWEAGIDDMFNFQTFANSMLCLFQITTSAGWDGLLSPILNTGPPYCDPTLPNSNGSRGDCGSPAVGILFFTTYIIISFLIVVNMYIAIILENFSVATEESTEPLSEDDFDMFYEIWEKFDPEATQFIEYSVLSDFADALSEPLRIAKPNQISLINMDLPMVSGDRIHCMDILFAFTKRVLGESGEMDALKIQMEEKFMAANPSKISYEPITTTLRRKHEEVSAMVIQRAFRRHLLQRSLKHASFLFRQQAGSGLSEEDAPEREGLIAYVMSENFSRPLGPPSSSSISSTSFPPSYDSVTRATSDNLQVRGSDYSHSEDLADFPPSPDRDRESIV

hNav1.7 = hNav1.7 (Homo sapiens, UniProt Q15858); type: cell-based; conditions: PatchXpress; * = at high concentrations compound would wash off slowly or not at all; read-out: PX hNav1.7 Tonic IC50
hNav1.4 [2] = target: T1, hNav1.4; conditions: ratio of IonWorks Quattro IC50 values
[3] = * = at high concentrations compound would wash off slowly or not at all

T1 sequence (P35499 whole entry): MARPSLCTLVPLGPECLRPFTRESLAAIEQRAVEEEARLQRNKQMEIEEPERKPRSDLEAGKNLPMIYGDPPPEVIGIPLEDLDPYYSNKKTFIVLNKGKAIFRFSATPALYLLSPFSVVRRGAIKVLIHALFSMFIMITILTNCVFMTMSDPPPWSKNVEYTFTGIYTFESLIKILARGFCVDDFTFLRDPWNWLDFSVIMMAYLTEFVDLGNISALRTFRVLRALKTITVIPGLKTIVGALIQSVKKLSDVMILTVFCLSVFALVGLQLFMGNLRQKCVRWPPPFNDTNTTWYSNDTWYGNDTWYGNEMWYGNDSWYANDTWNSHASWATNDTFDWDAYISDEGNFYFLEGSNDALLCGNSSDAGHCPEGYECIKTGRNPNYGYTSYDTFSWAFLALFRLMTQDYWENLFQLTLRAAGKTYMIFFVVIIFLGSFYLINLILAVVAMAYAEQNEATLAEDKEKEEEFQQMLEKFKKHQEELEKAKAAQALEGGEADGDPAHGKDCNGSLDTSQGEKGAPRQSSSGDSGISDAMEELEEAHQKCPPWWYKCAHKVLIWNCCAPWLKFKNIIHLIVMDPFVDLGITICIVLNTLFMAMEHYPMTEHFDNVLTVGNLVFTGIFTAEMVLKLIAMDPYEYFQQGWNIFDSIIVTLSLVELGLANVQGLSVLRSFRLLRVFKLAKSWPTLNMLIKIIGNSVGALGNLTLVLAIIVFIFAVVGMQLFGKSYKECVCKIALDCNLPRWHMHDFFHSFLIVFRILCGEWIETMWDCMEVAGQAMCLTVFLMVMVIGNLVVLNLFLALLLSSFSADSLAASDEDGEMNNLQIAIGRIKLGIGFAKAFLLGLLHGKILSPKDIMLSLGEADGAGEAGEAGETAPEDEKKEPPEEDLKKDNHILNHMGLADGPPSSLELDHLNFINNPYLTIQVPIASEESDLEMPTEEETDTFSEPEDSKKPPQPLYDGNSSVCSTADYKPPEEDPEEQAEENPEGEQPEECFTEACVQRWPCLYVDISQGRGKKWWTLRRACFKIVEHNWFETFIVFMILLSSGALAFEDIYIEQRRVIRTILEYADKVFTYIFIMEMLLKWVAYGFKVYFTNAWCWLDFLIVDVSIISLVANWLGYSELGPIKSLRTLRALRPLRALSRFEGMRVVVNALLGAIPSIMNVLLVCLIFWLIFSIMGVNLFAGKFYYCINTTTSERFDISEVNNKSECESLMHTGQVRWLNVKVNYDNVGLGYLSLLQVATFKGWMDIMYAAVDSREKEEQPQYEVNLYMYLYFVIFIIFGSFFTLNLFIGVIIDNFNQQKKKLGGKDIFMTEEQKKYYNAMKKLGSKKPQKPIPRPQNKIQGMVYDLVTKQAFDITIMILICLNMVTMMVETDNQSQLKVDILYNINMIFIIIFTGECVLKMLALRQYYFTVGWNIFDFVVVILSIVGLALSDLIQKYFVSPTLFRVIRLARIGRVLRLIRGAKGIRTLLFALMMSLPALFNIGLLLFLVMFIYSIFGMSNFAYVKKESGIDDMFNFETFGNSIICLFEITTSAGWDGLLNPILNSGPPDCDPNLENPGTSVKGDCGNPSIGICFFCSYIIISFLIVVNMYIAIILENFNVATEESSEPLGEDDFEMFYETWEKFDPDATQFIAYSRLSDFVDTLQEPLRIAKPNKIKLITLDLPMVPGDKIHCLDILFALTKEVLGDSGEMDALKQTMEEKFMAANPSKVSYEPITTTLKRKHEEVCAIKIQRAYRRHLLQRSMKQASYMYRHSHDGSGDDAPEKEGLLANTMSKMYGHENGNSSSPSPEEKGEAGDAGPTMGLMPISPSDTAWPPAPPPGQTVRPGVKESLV

Structure (SMILES) | IC50 (hNav1.4 [1]; [3]) [nM] | Nav1.4/Nav1.7 (hNav1.4 [1]; ratio of PX IC50 values) | IC50 (hNav1.5; [3]) [nM] | Nav1.5/Nav1.7 (hNav1.5; ratio of PX IC50 values) | other results
CC[C@H](C)[C@H](NC(=O)[C@@H](NC(=O)[C@H](CCCCN)NC(=O)[C@H](CCCNC(=N)N)NC(=O)[C@@H]1CSSC[C@@H]2NC(=O)[C@H](C)NC(=O)[C@H](CCCNC(=N)N)NC(=O)[C@H](CCCCN)NC(=O)[C@H](CO)NC(=O)[C@H](CC(=O)O)NC(=O)[C@@H]3CSSC[C@H](NC(=O)[C@H](C)NC(=O)[C@H](CC(C)C)NC(=O)CNC(=O)[C@H](CCC(=O)O)NC(=O)[C@H](CSSC[C@H](NC(=O)[C@@H](N)Cc4ccc(O)cc4)C(=O)N[C@@H](CCC(N)=O)C(=O)N[C@@H](CCCCN)C(=O)N[C@@H](Cc4c[nH]c5ccccc45)C(=O)N[C@@H](CCSC)C(=O)N[C@@H](Cc4c[nH]c5ccccc45)C(=O)N[C@@H]([C@@H](C)O)C(=O)N3)NC2=O)C(=O)N[C@@H](CCCCN)C(=O)N[C@@H](CC(C)C)C(=O)N[C@@H](Cc2c[nH]c3ccccc23)C(=O)N1)[C@@H](C)CC)C(N)=O [compound 17] | 100 | 8 | 2750 | – | IC50 (hNav1.7): 12 nM
CC[C@H](C)[C@H](NC(=O)[C@H](CCCCN)NC(=O)[C@H](CCCNC(=N)N)NC(=O)[C@@H]1CSSC[C@@H]2NC(=O)[C@H](C)NC(=O)[C@H](CCCNC(=N)N)NC(=O)[C@H](CCCCN)NC(=O)[C@H](CO)NC(=O)[C@H](CC(=O)O)NC(=O)[C@@H]3CSSC[C@H](NC(=O)[C@H](CCCNC(=N)N)NC(=O)[C@H](CC(C)C)NC(=O)CNC(=O)[C@H](CCC(=O)O)NC(=O)[C@H](CSSC[C@H](NC(=O)[C@@H](N)Cc4ccc(O)cc4)C(=O)N[C@@H](CCC(N)=O)C(=O)N[C@@H](CCCCN)C(=O)N[C@@H](Cc4c[nH]c5ccccc45)C(=O)N[C@@H](CCSC)C(=O)N[C@@H](Cc4c[nH]c5ccccc45)C(=O)N[C@@H]([C@@H](C)O)C(=O)N3)NC2=O)C(=O)N[C@@H](CCCCN)C(=O)N[C@@H](CC(C)C)C(=O)N[C@@H](Cc2c[nH]c3ccccc23)C(=O)N1)C(=O)N[C@@H](CCC(=O)O)C(N)=O [compound 70] | 11300 | 43 | > 10000 | >38 | –
CCCC[C@@H]1NC(=O)[C@H](Cc2c[nH]c3ccccc23)NC(=O)[C@H](CCCCN)NC(=O)[C@H](CCC(N)=O)NC(=O)[C@@H](NC(=O)[C@@H](N)Cc2ccc(O)cc2)CSSC[C@@H]2NC(=O)[C@@H]3CSSC[C@@H](C(=O)N[C@@H](CCCNC(=N)N)C(=O)N[C@@H](CCCCN)C(=O)N[C@H](C(=O)N[C@H](C(N)=O)[C@@H](C)CC)[C@@H](C)CC)NC(=O)[C@H](Cc4c[nH]c5ccccc45)NC(=O)[C@H](CC(C)C)NC(=O)[C@H](CCCCN)NC(=O)[C@H](CSSC[C@H](NC(=O)[C@H]([C@@H](C)O)NC(=O)[C@H](Cc4c[nH]c5ccccc45)NC1=O)C(=O)N[C@@H](CC(=O)O)C(=O)N[C@@H](Cc1cn(CCCOCCOCCOCCOCCOCCOCCOCCOCCOCCOCCN)nn1)C(=O)N[C@@H](CCCCN)C(=O)N[C@@H](CCCNC(=N)N)C(=O)N[C@@H](C)C(=O)N3)NC(=O)[C@H](CCCNC(=N)N)NC(=O)[C@H](CC(C)C)NC(=O)CNC(=O)[C@H](CCC(=O)O)NC2=O [compound 256] | – | 3 | – | 200 | Nav1.4/Nav1.7 (hNav1.4 [2]): 4
CCCC[C@@H]1NC(=O)[C@H](Cc2c[nH]c3ccccc23)NC(=O)[C@H](CCCCN)NC(=O)[C@H](CCC(N)=O)NC(=O)[C@@H](NC(=O)[C@H](Cc2ccc(O)cc2)NC(=O)[C@@H](N)CC(C)C)CSSC[C@@H]2NC(=O)[C@@H]3CSSC[C@@H](C(=O)N[C@@H](CCCNC(=N)N)C(=O)N[C@@H](CCCCN)C(=O)N[C@H](C(=O)N[C@H](C(N)=O)[C@@H](C)CC)[C@@H](C)CC)NC(=O)[C@H](Cc4c[nH]c5ccccc45)NC(=O)[C@H](CC(C)C)NC(=O)[C@H](CCCCN)NC(=O)[C@H](CSSC[C@H](NC(=O)[C@H]([C@@H](C)O)NC(=O)[C@H](Cc4c[nH]c5ccccc45)NC1=O)C(=O)N[C@@H](CC(=O)O)C(=O)N[C@@H](CO)C(=O)N[C@@H](CCCCN)C(=O)N[C@@H](CCCNC(=N)N)C(=O)N[C@@H](C)C(=O)N3)NC(=O)[C@H](CCCNC(=N)N)NC(=O)[C@H](CC(C)C)NC(=O)CNC(=O)[C@H](CCC(=O)O)NC2=O [compound 361] | – | 0 | – | 0 | –
CCCC[C@@H]1NC(=O)[C@H](Cc2c[nH]c3ccccc23)NC(=O)[C@H](CCCCN)NC(=O)[C@H](CCC(N)=O)NC(=O)[C@@H](NC(=O)[C@H](Cc2ccc(O)cc2)NC(=O)[C@@H](N)CCC)CSSC[C@@H]2NC(=O)[C@@H]3CSSC[C@@H](C(=O)N[C@@H](CCCNC(=N)N)C(=O)N[C@@H](CCCCN)C(=O)N[C@H](C(=O)N[C@H](C(N)=O)[C@@H](C)CC)[C@@H](C)CC)NC(=O)[C@H](Cc4c[nH]c5ccccc45)NC(=O)[C@H](CC(C)C)NC(=O)[C@H](CCCCN)NC(=O)[C@H](CSSC[C@H](NC(=O)[C@H]([C@@H](C)O)NC(=O)[C@H](Cc4c[nH]c5ccccc45)NC1=O)C(=O)N[C@@H](CC(=O)O)C(=O)N[C@@H](CO)C(=O)N[C@@H](CCCCN)C(=O)N[C@@H](CCCNC(=N)N)C(=O)N[C@@H](C)C(=O)N3)NC(=O)[C@H](CCCNC(=N)N)NC(=O)[C@H](CC(C)C)NC(=O)CNC(=O)[C@H](CCC(=O)O)NC2=O [compound 369] | 11.6 | – | 490 | – | –
CCCC[C@@H]1NC(=O)[C@H](Cc2c[nH]c3ccccc23)NC(=O)[C@H](CCCCN)NC(=O)[C@H](CCC(N)=O)NC(=O)[C@@H](NC(=O)[C@H](Cc2ccc(O)cc2)NC(=O)[C@H](N)CC(C)C)CSSC[C@@H]2NC(=O)[C@@H]3CSSC[C@@H](C(=O)N[C@@H](CCCNC(=N)N)C(=O)N[C@@H](CCCCN)C(=O)N[C@H](C(=O)N[C@H](C(N)=O)[C@@H](C)CC)[C@@H](C)CC)NC(=O)[C@H](Cc4c[nH]c5ccccc45)NC(=O)[C@H](CC(C)C)NC(=O)[C@H](CCCCN)NC(=O)[C@H](CSSC[C@H](NC(=O)[C@H]([C@@H](C)O)NC(=O)[C@H](Cc4c[nH]c5ccccc45)NC1=O)C(=O)N[C@@H](CC(=O)O)C(=O)N[C@@H](CO)C(=O)N[C@@H](CCCCN)C(=O)N[C@@H](CCCNC(=N)N)C(=O)N[C@@H](C)C(=O)N3)NC(=O)[C@H](CCCNC(=N)N)NC(=O)[C@H](CC(C)C)NC(=O)CNC(=O)[C@H](CCC(=O)O)NC2=O [compound 373] | 28.7 | 190 | 410 | – | –
C#CC[C@H](N)C(=O)NCCOCCOCCOCCOCCC(=O)NCCCC[C@@H]1NC(=O)[C@H](CCCNC(=N)N)NC(=O)[C@H](CCCCN)NC(=O)[C@H](CO)NC(=O)[C@H](CC(=O)O)NC(=O)[C@@H]2CSSC[C@@H]3NC(=O)[C@H](CCCNC(=N)N)NC(=O)[C@H](CC(C)C)NC(=O)CNC(=O)[C@H](CCC(=O)O)NC(=O)[C@H](CSSC[C@H](NC(=O)[C@H](Cc4ccc(O)cc4)NC(=O)[C@@H](N)CC#N)C(=O)N[C@@H](CCC(N)=O)C(=O)N[C@@H](CCCCN)C(=O)N[C@@H](Cc4c[nH]c5ccccc45)C(=O)N[C@@H](CCCC)C(=O)N[C@@H](Cc4c[nH]c5ccccc45)C(=O)N[C@@H]([C@@H](C)O)C(=O)N2)NC(=O)[C@H](CSSC[C@@H](C(=O)N[C@@H](CCCNC(=N)N)C(=O)N[C@@H](CCCCN)C(=O)N[C@H](C(=O)N[C@H](C(N)=O)[C@@H](C)CC)[C@@H](C)CC)NC(=O)[C@H](Cc2c[nH]c4ccccc24)NC(=O)[C@H](CC(C)C)NC(=O)[C@H](CCCCN)NC3=O)NC1=O [compound 380] | – | – | – | – | Nav1.4/Nav1.7 (hNav1.4 [1]; ratio of PX tonic IC50 values): 0; Nav1.5/Nav1.7 (hNav1.5; ratio of PX tonic IC50 values): 0
C#CC[C@H](N)C(=O)NCCCC[C@@H]1NC(=O)[C@H](CCCNC(=N)N)NC(=O)[C@H](CCCCN)NC(=O)[C@H](CO)NC(=O)[C@H](CC(=O)O)NC(=O)[C@@H]2CSSC[C@@H]3NC(=O)[C@H](CCCNC(=N)N)NC(=O)[C@H](CC(C)C)NC(=O)CNC(=O)[C@H](CCC(=O)O)NC(=O)[C@H](CSSC[C@H](NC(=O)[C@H](Cc4ccc(O)cc4)NC(=O)[C@@H](N)CC#N)C(=O)N[C@@H](CCC(N)=O)C(=O)N[C@@H](CCCCN)C(=O)N[C@@H](Cc4c[nH]c5ccccc45)C(=O)N[C@@H](CCCC)C(=O)N[C@@H](Cc4c[nH]c5ccccc45)C(=O)N[C@@H]([C@@H](C)O)C(=O)N2)NC(=O)[C@H](CSSC[C@@H](C(=O)N[C@@H](CCCNC(=N)N)C(=O)N[C@@H](CCCCN)C(=O)N[C@@H](CCC(=O)O)C(=O)N[C@H](C(N)=O)[C@@H](C)CC)NC(=O)[C@H](Cc2c[nH]c4ccccc24)NC(=O)[C@H](CC(C)C)NC(=O)[C@H](CCCCN)NC3=O)NC1=O [compound 392] | – | – | – | – | IC50 (hNav1.4 [1]; tonic block): 86.1 nM and 124 nM; IC50 (hNav1.5; tonic block): 920 nM and 1450 nM and 2160 nM
C#CC[C@@H]1NC(=O)[C@@H]2CSSC[C@H](NC(=O)[C@H](Cc3ccc(O)cc3)NC(=O)[C@@H](N)CC#N)C(=O)N[C@@H](CCC(N)=O)C(=O)N[C@@H](CCCCN)C(=O)N[C@@H](Cc3c[nH]c4ccccc34)C(=O)N[C@@H](CCCC)C(=O)N[C@@H](Cc3c[nH]c4ccccc34)C(=O)N[C@@H]([C@@H](C)O)C(=O)N[C@H]3CSSC[C@H](NC(=O)[C@H](CCCNC(=N)N)NC(=O)[C@H](CC(C)C)NC(=O)CNC1=O)C(=O)N[C@@H](CCCCN)C(=O)N[C@@H](CC(C)C)C(=O)N[C@@H](Cc1c[nH]c4ccccc14)C(=O)N[C@H](C(=O)N[C@@H](CCCNC(=N)N)C(=O)N[C@@H](CCCCN)C(=O)N[C@@H](CCC(=O)O)C(=O)N[C@H](C(N)=O)[C@@H](C)CC)CSSC[C@H](NC(=O)[C@H](C)NC(=O)[C@H](CCCNC(=N)N)NC(=O)[C@H](CCCCN)NC(=O)[C@H](CO)NC(=O)[C@H](CC(=O)O)NC3=O)C(=O)N2 [compound 395] | – | – | – | – | IC50 (hNav1.4 [1]; tonic block): 62.5 nM and 212 nM; IC50 (hNav1.5; tonic block): 710 nM
